According to article PMC11357397, “Design, Synthesis, and Evaluation of Oleyl-WRH Peptides for siRNA Delivery” (Pharmaceuticals, 2024):

What was measured:
Experiment in all cases: In vitro cytotoxicity of peptide/siRNA complexes (MTS)
Conditions in all cases: 35% v/v DMSO
HEK-293 cells = type: cell-based
Description: (§1) This study aimed to assess these complexes’ potential as a delivery system for siRNA-mediated gene silencing in cancer cells. Our initial experiments involved the use of the MDA-MB-231 (Figure 6A), MCF-7 (Figure 6B), SK-OV-3 (Figure 7A), and HEK-293 (Figure 7B) cell lines for cell culture and in vitro cytotoxicity studies. After 72 h of incubation, we used an MTS test to determine the cytotoxicity of the developed peptides complexed with scrambled siRNA. The peptide/siRNA complexes were applied to the cells at various concentrations and N/P ratios (from 10 to 100). […] This finding corroborates the results from our previous reports.
(§2) The cell lines selected for this study included MDA-MB-231 (ATCC No. HTB-26, triple-negative breast cancer cell line), MCF-7 (ATCC No. HTB-22, breast adenocarcinoma cells), HEK-293 (ATCC No. CRL-1573, normal kidney cells), and SK-OV-3 (ATCC No. HTB-77, human epithelial ovary adenocarcinoma cells).
(§3) The cytotoxicity of the synthesized oleyl-conjugated peptides complexed with scrambled siRNA was evaluated in vitro using the aforementioned cell lines. […]
(§4) For the assay, 10,000 cells per 0.1 mL were seeded into each well of a 96-well plate using a multichannel pipette and allowed to adhere for 24 h in a standard cell culture incubator. Cell health and confluency were assessed after the initial 24 h period. […]

SK-OV-3 cells = type: cell-based, human
Description: as §1
as §2, with “cells). […]” for “cells).”
as §3, §4

MCF-7 cells = type: cell-based
Description: as §1
as §2, with “cells). […]” for “cells).”
as §3, §4

MDA-MB-231 cells = type: cell-based
Description: as §1
as §2, with “cells). […]” for “cells).”
as §3, §4

Measured: cells to which the positive control was cytotoxic

C[S+](C)[O-] [DMSO]
over 70%: all assays above
